According to patent US20140350064A1, “PHARMACEUTICAL COMPOSITION COMPRISING AN AMPK ACTIVATOR AND A SEROTONERGIC AGENT AND METHODS OF USE THEREOF” (priority 2013, published 2014):

Key:
Assay type in all cases: in vivo, Sprague-Dawley rat
[1] = Fat mass of Sprague-Dawley rats after 65 days' treatment; details: for Fat Mass: average total fat mass after 65 days, n=10
Method: (§1) Male Sprague-Dawley rats were used with average body weight 223 g. The rats were fed with standard chow.
(§2) Before grouping, all animals were weighed at fasting state for 5 consecutive days. The first dose of the drug as indicated in Table 1 was administered on the next day after grouping; the dose was administered by gavage (t.i.d.) in a solution dose of […] body weight, and continued for a total of 65 days. Initially, each rat was treated accordingly with 0.25 mL drug solution; the dosage was then adjusted according to the body weight change of each rat, by increasing the dose by 0.05 mL for each 50 g body weight increment.
(§3) Statistical analysis was performed with SPSS software (IBM). One-way ANOVA was performed.

[2] = Overnight food intake in Sprague-Dawley rats during dosing; details: daily overnight food intake, 65 days of treatment, n=10
Method: as §1, §2
(§4) Groups were fed overnight with 30 g chowrat after drug administration and food deprived during daytime. Overnight food intake was measured every morning, while fasting body weight was measured every Tuesday and Friday night.
as §3

[3] = Weight gain inhibition in Sprague-Dawley rats, 65 days' treatment
Method: as §1, §2, §4, §3

[4] = after 65 consecutive days of treatment

## CC(C)CC(N(C)C)C1(c2ccc(Cl)cc2)CCC1 (centres unmarked) [SIB, sibutramine]
[1]; [4]
  Effect on fat mass: reduced fat mass
[1]
  Fat Mass: 25.5 ± 6.3 g
[1]; listed as sibutramine
  Fat Mass: 25.5 g
[2]
  Average Food Intake During Dosing: 29.4 ± 0.9 g
[2]; listed as sibutramine
  Average Food Intake During Dosing: 29.4 g
[3]; [4]
  Effect on body weight gain: decreased body weight gain
[3]; male Sprague-Dawley rats, gavage t.i.d., 65 days, fasting body weight, n=10
  Post-Dose body weight: 493.8 ± 13.0 g
[3]; male Sprague-Dawley rats, gavage t.i.d., 65 days, n=10
  ΔBW (increase of body weight): 270.7 ± 11.6 g
[3]; male Sprague-Dawley rats, gavage t.i.d., 65 days, n=10, listed as sibutramine
  ΔBW (increase of body weight): 270.7 g
[3]; vs. GS control group, 65 days, n=10
  Relative Body Weight: -22.0 g
[3]; vs. GS control group, 65 days, n=10, listed as sibutramine
  Weight Loss Ratio: 4.3%
